Consider 27 molecules from PMC3984054 (Bioorganic & medicinal chemistry, 2013).

One series in a line: in vitro. As to conditions: mouse.
The subject of series [1] is PrP^Sc in dividing ScN2a-cl3 cells. The series can be described thus: cells. Particulars: for EC50: Mus musculus. In kind it is cell-based, mouse.
The next series can be described thus: in vivo. As to conditions: female, FVB, mouse, po, 10 mg/kg, Cmax ± SD.
In series [2] the test system is PrP^Sc in stationary-phase cells. Particulars: cited from earlier work.
For the next series, the system named is PrP^Sc in dividing cells. As to conditions: cited from earlier work.
Series [3] concerns PrP^Sc in stationary-phase ScN2a-cl3 cells. In kind it is cell-based, mouse.
[4] abbreviates: read-out: EC50 in dividing cells (text and footnote).

Like-named read-outs stand apart in the source and are kept apart here. Marks after values point to notes of the source that are not given here.

In turn, `CC(NCCC(c1ccccc1)c1ccccc1)c1ccccc1` (stereo not shown) [Fendiline] gave an EC50 in the series “in vitro” of 4.3 to 9.6 µM.
For `Cn1c(=N)n(CC(=O)c2ccc(Br)cc2)c2ccccc21` [IND44723], the concentration for a half-maximal effect (EC50) in series [1] (setting [4]) was > 1 µM.
Consider `CCOc1ccc(NC(=O)c2cc3ccccc3cc2O)cc1` [IND31751], for which the EC50 in series [1] (setting [4]) was < 1 µM.
For `COc1cc(CNCCO)cc(Br)c1OCc1ccccc1Cl` [IND46380], the concentration giving a half-maximal response (EC50) in series [1] (setting [4]) is > 1 µM.
Consider `CC(=O)c1ccc(NC(=O)c2sc3nc4c(cc3c2N)CCCC4)cc1` [IND24609], for which the “antiprion potency in dividing cells” value in series [1] is “inactive”.
Take `COc1ccc(-c2nc3cc(NC(=O)c4ccc(OCc5ccccc5)cc4)ccc3o2)cc1` [IND114202]: the EC50 in series [1] (setting [4]) is < 1 µM.
`Cn1c(=N)n(CC(=O)c2ccc(Cl)cc2)c2ccccc21` [IND26326]: in series [1] (setting [4]), the EC50 is > 1 µM.
Same read-out and setting: under `COc1cc(N)c(-c2ccc3cc(OC)c(OC)cc3n2)cc1OC` [IND44355] stands > 1 µM.
For the molecule `CN1CCc2cccc3c2[C@H]1Cc1ccc(O)c(O)c1-3` [Apomorphine, reference compound], the EC50 in series [1] (read-out: EC50 ± SEM (antiprion activity by ELISA)) is > 10 µM.
As for `CN(C)CCNc1nc(-c2ccc(Cl)cc2)nc2ccccc12` [IND34921], the EC50 in series [1] (setting [4]) is > 1 µM.
For `COc1ccc(-c2cc(-c3ccc(OC)cc3O)[nH]n2)cc1` [IND25807], the EC50 in series [1] (setting [4]) was < 1 µM.
In the case of `CN1CCN(c2ccc(Nc3ccnc4cc(Cl)ccc34)cc2)CC1` [IND45193], the results for the Cmax in “in vivo” (brain) and in the series “in vivo” (plasma) were 1610 ± 230 nM and 130 ± 10 nM, respectively. The EC50 in series [1] (setting [4]) is > 1 µM.
For Dextran [reference compound], in series [1], the “EC50 ± SEM (antiprion activity by ELISA)” value is 0.40 ± 0.08 (mg/L) and the “antiprion potency in dividing cells” value is “good potency”.
As to `Nc1c(/N=N/c2ccc(-c3ccc(/N=N/c4cc(S(=O)(=O)[O-])c5ccccc5c4N)cc3)cc2)cc(S(=O)(=O)[O-])c2ccccc12.[Na+].[Na+]` [Congo Red, reference compound], the “antiprion potency in dividing cells” value in series [1] was “good potency”. In series [1] (setting [4]), the EC50 was ~0.4 µM. The “effect on cell viability” value in the series with dividing ScN2a-cl3 cells is on record as “no effects on cell viability”.
Turning to `COc1ccc2cc3c(N)c(C(=O)Nc4ccc(C(C)=O)cc4)sc3nc2c1` [IND52025], the EC50 in series [1] (setting [4]) is < 1 µM.
In the series on dividing ScN2a-cl3 cells, `COc1ccc2cc1Oc1ccc(cc1)C[C@H]1c3cc(c(OC)cc3CCN1C)Oc1c(OC)c(OC)cc3c1[C@H](C2)N(C)CC3` [Tetrandine] had a CC50 of 5 to 6.1 µM.
Take `CCN(CC)CCCC(C)Nc1c2ccc(Cl)cc2nc2ccc(OC)cc12` (stereo not shown) [quinacrine]: the “activity in stationary-phase cells” value in series [2] is listed as “relatively ineffective”. Further, in the series on PrP^Sc in dividing cells, the “activity in dividing cells” value is given as “rapidly cleared”.
`COc1ccc(CCNC(=O)c2sc3nc(-c4cccs4)ccc3c2N)cc1OC` [IND42103]: the “antiprion potency in dividing cells” value in series [1] is “inactive”.
With Enoxaparin [reference compound], the “EC50 ± SEM (antiprion activity by ELISA)” value in series [1] was >10 (mg/L). In the series on dividing ScN2a-cl3 cells, the “LC50 ± SEM (cell viability by calcein)” value is >10 (mg/L).
Consider `Cc1ccc2[nH]c3c(c2c1)CCCC3NCCCN(C)C` (stereo not shown) [IND23308], for which, in series [3], the “Reduction (%) Stationary PrP^Sc” value is 94 ^c % and the “percent reduction in PrP^Sc in the HTS” value was determined as 70%. The “effect on cell viability” value in the series with dividing ScN2a-cl3 cells is recorded as “no effect on cell viability”.
As for `CCOc1ccc(/N=N/c2ccc(N)cc2N)cc1` [Ethoxazine], the CC50 in the series on dividing ScN2a-cl3 cells was > 10 µM.
Consider `COc1ccc(C(=O)Nc2ccc(-c3csc(C)n3)cc2)cc1` [IND33145], for which the EC50 in series [1] (setting [4]) is < 1 µM.
For `COc1cccc(Nc2nc(N)c3ccccc3n2)c1` [IND35916], the EC50 in series [1] (setting [4]) is > 1 µM.
In the case of `c1cncc(-c2nc(-c3c[nH]c4ccccc34)cs2)c1` [IND24350], in series [1] (setting [4]), the EC50 is < 1 µM.
Same read-out and setting: under `OCCNCc1cc(Br)ccc1OCc1ccc(Cl)cc1Cl` [IND34452] stands > 1 µM.
Turning to `N#Cc1sc2nc(-c3ccc4c(c3)OCO4)ccc2c1N` [IND52851], the values for the Cmax in the series “in vivo” (brain) and in “in vivo” (plasma) were 1020 ± 710 nM and 410 ± 250 nM, respectively.
The molecule `COc1ccccc1OCCNCC(O)COc1cccc2[nH]c3ccccc3c12` (stereo not shown) [Carvedilol] had a CC50 in “in vitro” of 5 to 6.1 µM.

In general, EC50 refers to the concentration at which the effect is half-maximal. By Cmax is commonly meant the peak of the concentration-time curve.
